Patent US10597388B2, “Pyridazinone herbicides” (FMC CORPORATION, priority 2014, dated 2020)

Experiments:
Assay in all cases: Test C greenhouse herbicide test, pre- and postemergence
Type in all cases: in vivo
[1] = tested on: blackgrass (Alopecurus myosuroides)
In short: (§1)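 Seeds sown in loam–sand blend treated preemergence; plants in peat-based medium sprayed postemergence at 2–18 cm (1- to 4-leaf stage); chemicals in non-phytotoxic solvent with surfactant. Greenhouse 13–15 d, then visual rating versus controls on 0–100 scale (0 no effect, 100 complete control).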

[2] = tested on: wheat (winter wheat, Triticum aestivum)
In short: as §1

[3] = tested on: galium (catchweed bedstraw, Galium aparine)
In short: as §1

[4] = tested on: foxtail, giant (giant foxtail, Setaria faberii)
In short: as §1

[5] = tested on: crabgrass, large (large crabgrass, Digitaria sanguinalis)
In short: as §1

[6] = tested on: velvetleaf (Abutilon theophrasti)
In short: as §1

[7] = tested on: waterhemp (common waterhemp, Amaranthus rudis)
In short: as §1

[8] = tested on: johnsongrass (Sorghum halepense)
In short: as §1

soybean (Glycine max) = tested on: soybean (Glycine max)
In short: as §1

[9] = tested on: nutsedge, yellow (yellow nutsedge, Cyperus esculentus)
In short: as §1

[10] = tested on: ryegrass, Italian (Italian ryegrass, Lolium multiflorum)
In short: as §1

[11] = tested on: morningglory (Ipomoea coccinea)
In short: as §1

[12] = tested on: oilseed rape (Brassica napus)
In short: as §1

[13] = tested on: pigweed (Amaranthus retroflexus)
In short: as §1

[14] = tested on: lambsquarters (Chenopodium album)
In short: as §1

corn (Zea mays) = tested on: corn (Zea mays)
In short: as §1

[15] = Postemergence, 31 g ai/ha, scale 0 to 100 (0 no effect, 100 complete control)
[16] = Postemergence, 125 g ai/ha, scale 0 to 100, 0 is no effect, 100 is complete control
[17] = Postemergence, 250 g ai/ha, scale 0 to 100, 0 no effect, 100 complete control, 13 to 15 d
[18] = Preemergence, 31 g ai/ha, scale 0 to 100, 0 is no effect, 100 is complete control
[19] = Preemergence, 62 g ai/ha, scale 0 to 100, 0 is no effect, 100 is complete control
[20] = Preemergence, 125 g ai/ha, scale 0 to 100, 0 is no effect, 100 is complete control
[21] = Preemergence, 250 g ai/ha, scale 0 to 100 (0 no effect, 100 complete control)
[22] = postemergence, 62 g ai/ha, scale 0 to 100, 0 no effect, 100 complete control
[23] = Postemergence, 62 g ai/ha, 0 to 100 scale (0 no effect, 100 complete control)
[24] = postemergence, 125 g ai/ha, scale 0 to 100, 0 no effect, 100 complete control

For `Cc1sc2ccc(Cl)cc2c1-c1c(OS(C)(=O)=O)c(Cl)nn(C)c1=O` [Compound 114], the “Plant response rating, Blackgrass” value [1, 15] was 0, the “Plant response rating, Blackgrass” value [1, 16] was 5 and the “Plant response rating, Blackgrass” value [1, 17] was 15. For the same molecule, the “Plant response rating, Blackgrass” value [1, 18] was 0, the “Plant response rating, Blackgrass” value [1, 19] was 5 and the “Plant response rating, Blackgrass” value [1, 20] was 5. For the same molecule, the “Blackgrass plant response rating” value [1, 21] was 10, the “Blackgrass plant response rating” value [1, 22] was 0 and the “Plant response rating, Wheat” value [2, 15] was 0. The “Plant response rating, Wheat” value [2, 16] was 5, the “Plant response rating, Wheat” value [2, 17] was 15 and the “Plant response rating, Wheat” value [2, 18] was 0. For the same molecule, the “Plant response rating, Wheat” value [2, 19] was 0, the “Plant response rating, Wheat” value [2, 20] was 5 and the “Wheat plant response rating” value [2, 21] was 35. The “Plant response rating, Galium” value [3, 15] was 95, the “Plant response rating, Galium” value [3, 16] was 95 and the “Plant response rating, Galium” value [3, 17] was 95. For the same molecule, the “Plant response rating, Galium” value [3, 18] was 98, the “Plant response rating, Galium” value [3, 19] was 98 and the “Plant response rating, Galium” value [3, 20] was 100. The “Galium plant response rating” value [3, 21] was 100, the “Plant response rating, Foxtail, Giant” value [4, 15] was 10 and the “Plant response rating, Foxtail, Giant” value [4, 16] was 50. For the same molecule, the “Plant response rating, Foxtail, Giant” value [4, 17] was 85, the “Plant response rating, Crabgrass, Large” value [5, 15] was 10 and the “Plant response rating, Crabgrass, Large” value [5, 16] was 20. The “Plant response rating, Crabgrass, Large” value [5, 17] was 25, the “Plant response rating, Crabgrass, Large” value [5, 18] was 0 and the “Plant response rating, Crabgrass, Large” value [5, 19] was 5. For the same molecule, the “Plant response rating, Crabgrass, Large” value [5, 20] was 75, the “Crabgrass, Large plant response rating” value [5, 21] was 80 and the “Crabgrass, Large plant response rating” value [5, 22] was 20. For the same molecule, the “Plant response rating, Velvetleaf” value [6, 15] was 25, the “Plant response rating, Velvetleaf” value [6, 16] was 55 and the “Plant response rating, Velvetleaf” value [6, 17] was 85. The “Plant response rating, Velvetleaf” value [6, 18] was 45, the “Plant response rating, Velvetleaf” value [6, 19] was 60 and the “Plant response rating, Velvetleaf” value [6, 20] was 85. For the same molecule, the “Velvetleaf plant response rating” value [6, 21] was 100, the “Plant response rating, Waterhemp” value [7, 15] was 25 and the “Plant response rating, Waterhemp” value [7, 16] was 55. The “Plant response rating, Waterhemp” value [7, 17] was 45, the “Plant response rating, Waterhemp” value [7, 18] was 50 and the “Plant response rating, Waterhemp” value [7, 19] was 75. For the same molecule, the “Plant response rating, Waterhemp” value [7, 20] was 65, the “Waterhemp plant response rating” value [7, 21] was 80 and the “Plant response rating, Johnsongrass” value [8, 15] was 5. For the same molecule, the “Plant response rating, Johnsongrass” value [8, 16] was 5, the “Plant response rating, Johnsongrass” value [8, 17] was 15 and the “Plant response rating, Johnsongrass” value [8, 18] was 0. For the same molecule, the “Plant response rating, Johnsongrass” value [8, 19] was 0, the “Plant response rating, Johnsongrass” value [8, 20] was 0 and the “Johnsongrass plant response rating” value [8, 21] was 0. For the same molecule, the “Plant response rating, Soybean” value (soybean (Glycine max); [15]) was 0, the “Plant response rating, Soybean” value (soybean (Glycine max); [16]) was 0 and the “Plant response rating, Soybean” value (soybean (Glycine max); [17]) was 5. The “Plant response rating, Soybean” value (soybean (Glycine max); [18]) was 0, the “Plant response rating, Soybean” value (soybean (Glycine max); [19]) was 0 and the “Plant response rating, Soybean” value (soybean (Glycine max); [20]) was 20. The “Plant response rating, Nutsedge, Yellow” value [9, 15] was 10, the “Plant response rating, Nutsedge, Yellow” value [9, 16] was 25 and the “Plant response rating, Nutsedge, Yellow” value [9, 17] was 35. The “Plant response rating, Nutsedge, Yellow” value [9, 18] was 10, the “Plant response rating, Nutsedge, Yellow” value [9, 19] was 40 and the “Plant response rating, Nutsedge, Yellow” value [9, 20] was 65. For the same molecule, the “Nutsedge, Yellow plant response rating” value [9, 21] was 95, the “Plant response rating, Ryegrass, Italian” value [10, 15] was 60 and the “Plant response rating, Ryegrass, Italian” value [10, 16] was 80. For the same molecule, the “Plant response rating, Ryegrass, Italian” value [10, 17] was 95, the “Plant response rating, Ryegrass, Italian” value [10, 18] was 40 and the “Plant response rating, Ryegrass, Italian” value [10, 19] was 85. For the same molecule, the “Plant response rating, Ryegrass, Italian” value [10, 20] was 90, the “Ryegrass, Italian plant response rating” value [10, 21] was 95 and the “Plant response rating, Morningglory” value [11, 15] was 95. The “Plant response rating, Morningglory” value [11, 16] was 100, the “Plant response rating, Morningglory” value [11, 17] was 100 and the “Plant response rating, Morningglory” value [11, 18] was 25. For the same molecule, the “Plant response rating, Morningglory” value [11, 19] was 55, the “Plant response rating, Morningglory” value [11, 20] was 75 and the “Morningglory plant response rating” value [11, 21] was 90. The “Plant response rating, Oilseed Rape” value [12, 15] was 15, the “Plant response rating, Oilseed Rape” value [12, 16] was 40 and the “Plant response rating, Oilseed Rape” value [12, 17] was 80. For the same molecule, the “Plant response rating, Oilseed Rape” value [12, 18] was 30, the “Plant response rating, Oilseed Rape” value [12, 19] was 98 and the “Plant response rating, Oilseed Rape” value [12, 20] was 100. The “Oilseed Rape plant response rating” value [12, 21] was 100, the “Plant response rating, Pigweed” value [13, 15] was 80 and the “Plant response rating, Pigweed” value [13, 16] was 95. For the same molecule, the “Plant response rating, Pigweed” value [13, 17] was 95, the “Plant response rating, Pigweed” value [13, 18] was 98 and the “Plant response rating, Pigweed” value [13, 19] was 90. The “Plant response rating, Pigweed” value [13, 20] was 100, the “Pigweed plant response rating” value [13, 21] was 100 and the “Plant response rating, Lambsquarters” value [14, 15] was 95. The “Plant response rating, Lambsquarters” value [14, 16] was 100, the “Plant response rating, Lambsquarters” value [14, 17] was 100 and the “Plant response rating, Lambsquarters” value [14, 18] was 90. The “Plant response rating, Lambsquarters” value [14, 19] was 98, the “Plant response rating, Lambsquarters” value [14, 20] was 90 and the “Lambsquarters plant response rating” value [14, 21] was 95. The “Plant response rating, Corn” value (corn (Zea mays); [15]) was 0, the “Plant response rating, Corn” value (corn (Zea mays); [16]) was 0 and the “Plant response rating, Corn” value (corn (Zea mays); [17]) was 0. The “Plant response rating, Corn” value (corn (Zea mays); [18]) was 0, the “Plant response rating, Corn” value (corn (Zea mays); [19]) was 5 and the “Plant response rating, Corn” value (corn (Zea mays); [20]) was 5. The “Corn plant response rating” value (corn (Zea mays); [21]) was 5 and the “Corn plant response rating” value (corn (Zea mays); [22]) was 0.

`COC(=O)Oc1c(C)nn(C)c(=O)c1-c1c([N+](=O)[O-])ccc2ccccc12` [Compound 162] was tested, and the “Plant response rating, Blackgrass” value [1, 15] was 10, the “Blackgrass plant response rating” value [1, 23] was 15 and the “Plant response rating, Blackgrass” value [1, 17] was 40. The “Blackgrass plant response rating” value [1, 24] was 30, the “Plant response rating, Wheat” value [2, 15] was 0 and the “Wheat plant response rating” value [2, 23] was 10. The “Plant response rating, Wheat” value [2, 17] was 10, the “Wheat plant response rating” value [2, 24] was 5 and the “Plant response rating, Galium” value [3, 15] was 90. The “Galium plant response rating” value [3, 23] was 90, the “Plant response rating, Galium” value [3, 17] was 98 and the “Galium plant response rating” value [3, 24] was 95. The “Plant response rating, Foxtail, Giant” value [4, 15] was 5, the “Foxtail, Giant plant response rating” value [4, 23] was 15 and the “Plant response rating, Foxtail, Giant” value [4, 17] was 40. For the same molecule, the “Foxtail, Giant plant response rating” value [4, 24] was 15, the “Plant response rating, Crabgrass, Large” value [5, 15] was 0 and the “Crabgrass, Large plant response rating” value [5, 23] was 5. For the same molecule, the “Plant response rating, Crabgrass, Large” value [5, 17] was 10, the “Crabgrass, Large plant response rating” value [5, 24] was 10 and the “Plant response rating, Velvetleaf” value [6, 15] was 5. The “Velvetleaf plant response rating” value [6, 23] was 15, the “Plant response rating, Velvetleaf” value [6, 17] was 70 and the “Velvetleaf plant response rating” value [6, 24] was 30. The “Plant response rating, Waterhemp” value [7, 15] was 45, the “Waterhemp plant response rating” value [7, 23] was 65 and the “Plant response rating, Waterhemp” value [7, 17] was 65. The “Waterhemp plant response rating” value [7, 24] was 70, the “Plant response rating, Johnsongrass” value [8, 15] was 5 and the “Johnsongrass plant response rating” value [8, 23] was 5. The “Plant response rating, Johnsongrass” value [8, 17] was 10, the “Johnsongrass plant response rating” value [8, 24] was 5 and the “Plant response rating, Soybean” value (soybean (Glycine max); [15]) was 0. For the same molecule, the “Soybean plant response rating” value (soybean (Glycine max); [23]) was 0, the “Plant response rating, Soybean” value (soybean (Glycine max); [17]) was 0 and the “Soybean plant response rating” value (soybean (Glycine max); [24]) was 0. For the same molecule, the “Plant response rating, Nutsedge, Yellow” value [9, 15] was 20, the “Nutsedge, Yellow plant response rating” value [9, 23] was 25 and the “Plant response rating, Nutsedge, Yellow” value [9, 17] was 30. For the same molecule, the “Nutsedge, Yellow plant response rating” value [9, 24] was 30, the “Plant response rating, Ryegrass, Italian” value [10, 15] was 60 and the “Ryegrass, Italian plant response rating” value [10, 23] was 70. For the same molecule, the “Plant response rating, Ryegrass, Italian” value [10, 17] was 80, the “Ryegrass, Italian plant response rating” value [10, 24] was 70 and the “Plant response rating, Morningglory” value [11, 15] was 60. The “Morningglory plant response rating” value [11, 23] was 85, the “Plant response rating, Morningglory” value [11, 17] was 90 and the “Morningglory plant response rating” value [11, 24] was 85. For the same molecule, the “Plant response rating, Oilseed Rape” value [12, 15] was 0, the “Oilseed Rape plant response rating” value [12, 23] was 0 and the “Plant response rating, Oilseed Rape” value [12, 17] was 0. The “Oilseed Rape plant response rating” value [12, 24] was 0, the “Plant response rating, Pigweed” value [13, 15] was 75 and the “Pigweed plant response rating” value [13, 23] was 80. For the same molecule, the “Plant response rating, Pigweed” value [13, 17] was 90, the “Pigweed plant response rating” value [13, 24] was 85 and the “Plant response rating, Lambsquarters” value [14, 15] was 85. The “Lambsquarters plant response rating” value [14, 23] was 95, the “Plant response rating, Lambsquarters” value [14, 17] was 95 and the “Lambsquarters plant response rating” value [14, 24] was 90. The “Plant response rating, Corn” value (corn (Zea mays); [15]) was 0, the “Corn plant response rating” value (corn (Zea mays); [23]) was 0 and the “Plant response rating, Corn” value (corn (Zea mays); [17]) was 0. For the same molecule, the “Corn plant response rating” value (corn (Zea mays); [24]) was 0.
